Biological target: ATP-dependent translocase ABCB1 (Homo sapiens, UniProt P08183)
Test: TP_TRANSPORTER: cell accumulation of doxorubicin in the presence of Azithromycin at a concentration of 0.3uM and 1mM in K562/ADR cells
Assay type: functional, cell-based

Chain of ATP-dependent translocase ABCB1 (P08183 whole entry): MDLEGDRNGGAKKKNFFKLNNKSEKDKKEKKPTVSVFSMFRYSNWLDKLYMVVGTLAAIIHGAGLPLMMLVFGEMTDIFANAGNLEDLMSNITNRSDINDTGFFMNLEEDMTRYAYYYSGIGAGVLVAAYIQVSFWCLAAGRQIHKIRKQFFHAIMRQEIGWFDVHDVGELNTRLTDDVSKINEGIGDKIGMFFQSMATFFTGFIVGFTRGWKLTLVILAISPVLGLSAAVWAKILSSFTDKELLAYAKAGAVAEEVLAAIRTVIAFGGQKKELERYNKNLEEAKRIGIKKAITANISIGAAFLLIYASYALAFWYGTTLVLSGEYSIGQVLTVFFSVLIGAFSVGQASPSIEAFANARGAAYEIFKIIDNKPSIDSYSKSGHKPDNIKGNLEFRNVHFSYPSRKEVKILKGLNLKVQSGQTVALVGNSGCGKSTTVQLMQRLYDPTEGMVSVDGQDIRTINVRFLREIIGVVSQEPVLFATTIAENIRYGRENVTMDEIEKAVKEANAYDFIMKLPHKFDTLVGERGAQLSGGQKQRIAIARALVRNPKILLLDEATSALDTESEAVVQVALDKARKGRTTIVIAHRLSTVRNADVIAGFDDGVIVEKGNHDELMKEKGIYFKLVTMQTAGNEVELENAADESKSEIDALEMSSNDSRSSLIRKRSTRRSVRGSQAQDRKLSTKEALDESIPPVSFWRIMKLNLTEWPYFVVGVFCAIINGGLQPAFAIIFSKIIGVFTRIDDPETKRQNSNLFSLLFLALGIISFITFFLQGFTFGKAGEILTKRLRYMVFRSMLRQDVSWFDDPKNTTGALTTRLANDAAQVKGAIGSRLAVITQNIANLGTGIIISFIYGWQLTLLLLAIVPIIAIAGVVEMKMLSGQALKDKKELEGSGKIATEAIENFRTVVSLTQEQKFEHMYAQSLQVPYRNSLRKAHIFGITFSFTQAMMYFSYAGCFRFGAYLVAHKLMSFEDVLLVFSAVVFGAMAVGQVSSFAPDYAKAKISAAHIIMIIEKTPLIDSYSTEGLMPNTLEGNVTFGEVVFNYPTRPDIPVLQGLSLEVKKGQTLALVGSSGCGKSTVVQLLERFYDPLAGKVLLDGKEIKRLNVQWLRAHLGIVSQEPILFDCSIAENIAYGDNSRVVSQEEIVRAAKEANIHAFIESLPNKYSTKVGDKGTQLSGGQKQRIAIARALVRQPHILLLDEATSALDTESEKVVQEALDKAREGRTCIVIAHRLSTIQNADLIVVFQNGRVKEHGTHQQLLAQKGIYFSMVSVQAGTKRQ

- Activity: inhibitor [+]
SMILES: CC[C@H]1OC(=O)[C@H](C)[C@@H](O[C@H]2C[C@@](C)(OC)[C@@H](O)[C@H](C)O2)[C@H](C)[C@@H](O[C@@H]2O[C@H](C)C[C@H](N(C)C)[C@H]2O)[C@](C)(O)C[C@@H](C)CN(C)[C@H](C)[C@@H](O)[C@]1(C)O [AZITHROMYCIN]

From ChEMBL document CHEMBL2074566, “Azithromycin reverses anticancer drug resistance and modifies hepatobiliary excretion of doxorubicin in rats” (Eur J Pharmacol, 2004)
